The text below walks through data of US20240226160A9, “ACTIVITY-INDUCIBLE FUSION PROTEINS HAVING A HEAT SHOCK PROTEIN 90 BINDING DOMAIN” (Seattle Children's Hospital d/b/a Seattle Children's …, priority 2021, published 2024).

Positions count from the first letter of the chain named.

In one assay the test system is huCD19CAR-EBD(4OHT). Description: Anti-CD3zeta western blot with band quantification. It counts as cell-based. The following applies: 500 nM, 24 hr incubation, vs 0 nM. The protocol: FIG. 26. Anti-zeta Western Blot evaluating huCD19CAR-EBD(4OHT) with differing Glycine linkers in 0 nM and 500 nM of 4OHT OR (Z)-endoxifen. Protein processing and expression of huCD19CAR-EBD with different linkers between the CAR and the EBD was evaluated using an anti-CD3zeta western blot analysis. Whole cell lysates were made for the huCD19CAR-EBD(4OHT) T cell lines with either a 1Glycline, 2Glycine or 3Glycine linker between the CAR and EBD domains in 0 nM and 500 nM 4OHT/(Z)-endoxifen drug conditions following a 24 hr incubation. Whole cell lysates were also made for the Mock T cell line and the CAR alone T cell line under the same conditions. The western blot was imaged and analyzed on the LiCOR Odyssey. Additionally, protein band quantification was performed using the LiCOR Odyssey. CAR zeta chain expression is observed for all CAR-1/2/3Glylinker-EBD lines in both the no drug and maximum drug conditions.

A further assay deals with T1, EBD(ES8) (Homo sapiens, UniProt P03372, E353A).
T1 sequence (P03372 282-595 E353A): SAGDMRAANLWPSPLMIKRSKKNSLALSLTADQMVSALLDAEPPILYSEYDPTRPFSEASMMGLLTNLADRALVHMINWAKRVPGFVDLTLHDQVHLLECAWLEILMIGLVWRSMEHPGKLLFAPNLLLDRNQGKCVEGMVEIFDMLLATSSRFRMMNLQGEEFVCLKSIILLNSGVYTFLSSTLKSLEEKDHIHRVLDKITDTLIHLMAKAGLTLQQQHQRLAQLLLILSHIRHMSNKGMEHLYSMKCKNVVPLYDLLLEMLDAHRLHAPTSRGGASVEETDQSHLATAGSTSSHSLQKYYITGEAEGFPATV
Description: CD107a activation assay (flow cytometry MFI). It is filed as cell-based. The note with it: for CD107a response of EBD(ES8) to drug: 24 hr preconditioning, 4 hours co-culture. As for the experimental part: FIGS. 28A, 28B. (28A) CD107a activation assay: huCD19CAR-EBD(4OHT) linker variants vs K562+CD19t. […] To achieve this, T cells (including mock and constitutively active CAR controls) were preconditioned with target drug concentration(s) for 24 hrs, then exposed to a tumor line expressing their target antigen (CD19 or B7H3). After 4 hours of co-culture with target tumors at various drug concentrations, the T cells were assessed for a) activation and degranulation by staining for CD107a and b) cell surface CAR-EBD by staining for human scFv (which works for both B7H3CAR and huCD19CAR), then running on flow cytometry. MFI (median fluorescence intensity) was determined for each stain on each sample under each condition and plotted on a log scale of drug concentration. EC10 and EC90 (effective concentration 10% and 90%) were calculated in Graphpad Prism for CD107a expression and function as estimates for the drug concentration required for each construct to turn “on” or “off”. Positive and negative controls for each CAR are presented in the bar graph. […] EBD(4OHT) responds to 4-OHT and (Z)-endoxifen, but not to CMP8 or ES8. The responsiveness of degranulation to target antigen in the presence of inducer molecule is largely similar between the Gly linker variants. EBD(4OHT) is very sensitive to its intended inducer molecules, beginning to activate (EC10) at single nanomolar concentrations and becoming fully activated (EC90) at double digit nanomolar concentrations. […] Both EBD(CMP8) and EBD(ES8) respond to 4OHT.

In assay [1] the target is T2, B7H3CAR-3Gly-EBD(4OHT) (Homo sapiens, UniProt P03372, G400V/L544A/M543A).
T2 construct: expressed in transfected cells; T cells by b52 and b55
T2 sequence (P03372 282-595 G400V/M543A/L544A): T1 sequence (P03372 282-595 E353A) with A72E, G119V, M262A, L263A
Kind of assay: Chromium release assay, specific cell lysis. It is filed as cell-based. As for the experimental part:
FIG. 18. […] Specific cell lysis was evaluated using a chromium release assay. […] Following the 4 hr incubation the Perkin Elmer TopCount was used to quantify the amount of Cr51 released into each well as tumor lysis occurred.

In assay [2] the target is T2, B7H3CAR-3Gly-EBD(4OHT). Kind of assay: Meso Scale Diagnostic cytokine release assay. It counts as cell-based. The following applies: 24 hr drug culture 0-500 nM, 24 hr co-incubation with tumor lines. The protocol: FIGS. 19A, 19B. […] (20A and 20B) Cytokine release was evaluated using a Meso Scale Diagnostic assay. […] Following the 24 hr incubation the supernatant from each co-incubation was collected and run on the MESO QuickPlex SQ 120 instrument to ascertain the amount of cytokine released.

For the next assay, the target named is T3, B7H3 EBD(CMP8) CAR (Homo sapiens, UniProt P03372, G521R/L384M/M421G).
T3 construct: expressed in transfected cells; host or cells: clonal Jurkat iSynPro eGFP:ffluc reporter cell line (transduced)
T3 sequence (P03372 282-595 L384M/M421G/G521R): T1 sequence (P03372 282-595 E353A) with A72E, L103M, M140G, G240R
Description: Jurkat iSynPro eGFP:ffluc reporter assay (GFP by flow cytometry). It counts as cell-based. As for the experimental part:
FIG. 11. Design of B7H3 CAR EBD mutant study. […] Jurkat iSynPro lines included cJ10792: Jurkat iSynPro-GFP:ffluc; cJ13093: Jurkat iSynPro-GFP:ffluc+B7H3 CAR; cJ13094: Jurkat iSynPro-GFP:ffluc+B7H3 CAR EBD (4-OHT); and cJ13095: Jurkat iSynPro-GFP:ffluc+B7H3 CAR EBD (CMP8) with a K562 parental target. 4-OHT and CMP8 concentrations of 0 nM, 500 nM and 1000 nM were tested for each cell line.
FIG. 16. Design of activation curve study. The objective of the study was to examine activation curves of CAR EBD Jurkat iSynPro lines in an increasing presence of 4-OHT, (Z)-endoxifen, or CMP8.
FIG. 9 (top) depicts a schematic of Jurkat iSynPro eGFP:ffluc reporter cells. Jurkat iSynPro eGFP:ffluc reporter cells feature a Jurkat cell line lentivirally transduced to stably express a inducible synthetic promoter (iSynPro WO2018213332A1) regulating the expression of an enhanced green fluorescent protein (eGFP) fused to bioluminescent reporter firefly luciferase (ffluc). This line was then clonally selected by limiting dilution. […]
Jurkat iSynPro eGFP:ffluc assays are also depicted in FIG. 9 (bottom). […] At the 24 hr timepoint, cells were collected and evaluated by flow cytometry. Cells were initially stained for CD33 to gate out target cell lines before they were evaluated for GFP expression by positivity and/or mean fluorescence intensity (MFI). […]
A general note: Reporter assays use an easily measured gene product as a stand-in for the process of interest.

In assay [3] the target is T4, B7H3CAR-3Gly-EBD variants (Homo sapiens, UniProt P03372, G521R/L384M/M421G).
T4 sequence (P03372 282-595 L384M/M421G/G521R): T1 sequence (P03372 282-595 E353A) with A72E, L103M, M140G, G240R
The following applies: B7H3CAR-3Gly-EBD(CMP8) vs K562+mCherry, drug added at 24 hrs.
Description: (31A) Incucyte Cytotoxicity Assay: B7H3CAR-3Gly-EBD variants. CD4 and CD8 T cells (mixed at a 1:1 ratio) expressing a either B7H3CAR-3Gly-EBD(4OHT), B7H3CAR-3Gly-EBD(CMP8), or B7H3CAR-3Gly-EBD(ES8) were either preincubated for 24 hrs with 500 nM inducer drug or not preincubated. These T cells were subsequently plated with CAR-target expressing tumor lines (K562, and/or Be2) constitutively expressing mCherry (for detection and quantification). […] Plates were placed inside of an Incucyte and imaged every 3-4 hours for several days. mCherry signal was then quantified and plotted as a function of time. […]
(32A-32C) CD4 and CD8 T cells (mixed at a 1:1 ratio) expressing either B7H3CAR-3Gly-EBD(4OHT), B7H3CAR-3Gly-EBD(CMP8), or B7H3CAR-3Gly-EBD(ES8) (were either preincubated for 24 hrs with 500 nM inducer drug or not preincubated (B7H3CAR-3Gly-EBD(4OHT) received 500 nM 4OHT, B7H3CAR-3Gly-EBD(CMP8) received 500 nM CMP8, B7H3CAR-3Gly-EBD(ES8) received 500 nM ES8). These T cells were subsequently plated with CAR-target expressing tumor lines (K562, and/or Be2) constitutively expressing mCherry (for detection and quantification). Tumors were plated at 10,000 per well, and co-culture was performed at a 4:1 ratio (T cell:tumor cell) with or without the appropriate drug at 500 nM. […]

For `CC/C(=C(\c1ccc(O)cc1)c1ccc(OCCNC)cc1)c1ccccc1` [(Z)-endoxifen], the “increase in CAR-EBD protein expression (zeta chain band quantification)” value with huCD19CAR-EBD(4OHT) is recorded as around 3 fold.
As to `C[C@]12CC[C@@H]3c4ccc(/C=C/C(=O)O)cc4CC[C@H]3[C@@H]1CC[C@@H]2O` [ES8], at EBD(ES8), the “CD107a response of EBD(ES8) to drug” value is reported as “very sensitive to induction”. The “maximum magnitude of induction” value on EBD(ES8) (CD107a) is “less than its induction with 4OHT”.
With `CC/C(=C(\c1ccc(O)cc1)c1ccc(OCCN(C)C)cc1)c1ccccc1` [4-OHT, 4-hydroxytamoxifen], the “increase in CAR-EBD protein expression (zeta chain band quantification)” value in the assay on huCD19CAR-EBD(4OHT) was around 3 fold.
For `O=C1CCC2(Cc3ccc(Cl)cc3)Cc3cc(O)ccc3C2=C1c1ccc(OCCN2CCCCC2)cc1` (centres unmarked) [CMP8], the specific lysis on B7H3CAR-3Gly-EBD(4OHT) [1] (500 nM) stood at 0%. Further, the “regulation of CAR activity (specific cell lysis)” value on B7H3CAR-3Gly-EBD(4OHT) [1] (24 hr drug culture 0-500 nM, 4 hr co-incubation with Cr-51 tumor line) is reported as “is not regulated by”. Further, the “regulation of CAR activity (cytokine release)” value on B7H3CAR-3Gly-EBD(4OHT) [2] is “is not regulated by”. Besides, the “CD107a response of EBD(ES8) to drug” value on EBD(ES8) is recorded as “does not respond to”. The “induction of expression at lowest drug level” value on B7H3 EBD(CMP8) CAR (0.49 nM of drug) is “still observed”. Besides, the “response of EBD(CMP8) mutant (GFP induction)” value on B7H3 EBD(CMP8) CAR (K562 target, 24 hr) is given as “response”. The “change in tumor growth kinetics once activated” value in assay [3] is “immediate”.
